Numbers after ± are expanded uncertainties.

The term mass density denotes mass per unit of volume. In general, speed of sound refers to the propagation velocity of pressure waves in the medium.

The conditions of this series: 101.33 kPa, Liquid.

Turning to `Cc1ccc(C)cc1` [1,4-dimethylbenzene], the mass density came out at 856.62 ± 1.4 kg/m3 (298.15 K), 852.25 ± 1.4 kg/m3 (303.15 K), 847.88 ± 1.5 kg/m3 (308.15 K) and 843.64 ± 1.5 kg/m3 (313.15 K). Moreover, the speed of sound (298.15 K) is listed as 1308 ± 6 m/s and the speed of sound (308.15 K) stood at 1276 ± 6 m/s.

On to `Cc1ccccc1` [toluene], for which the mass density (298.15 K) came to 862.2 ± 1.4 kg/m3, the mass density (303.15 K) came to 857.55 ± 1.4 kg/m3, the mass density (308.15 K) is on record as 852.86 ± 1.4 kg/m3 and the mass density (313.15 K) turned out to be 848.16 ± 1.5 kg/m3. For the same compound, the speed of sound by setting is: (298.15 K) 1304 ± 6 m/s; (308.15 K) 1262 ± 5 m/s.

`C=C(C)C(=O)OC` [methyl methacrylate]: the mass density by setting is: (298.15 K) 937.63 ± 0.92 kg/m3; (303.15 K) 931.74 ± 0.96 kg/m3; (308.15 K) 925.74 ± 1 kg/m3; (313.15 K) 920.26 ± 1 kg/m3. The speed of sound was 1181 ± 5 m/s (298.15 K) and 1153 ± 5 m/s (308.15 K).

On to `c1ccccc1` [benzene], for which the mass density is, setting by setting: (298.15 K) 873.61 ± 1.3 kg/m3; (303.15 K) 868.29 ± 1.3 kg/m3; (308.15 K) 862.96 ± 1.4 kg/m3; (313.15 K) 857.97 ± 1.4 kg/m3. The speed of sound is, setting by setting: (298.15 K) 1299 ± 6 m/s; (308.15 K) 1260 ± 5 m/s.

Take `CCCCOCCO` [2-butoxyethan-1-ol]: the mass density turned out to be 896.25 ± 1.2 kg/m3 (298.15 K), 892.03 ± 1.2 kg/m3 (303.15 K), 888.91 ± 1.2 kg/m3 (308.15 K) and 883.4 ± 1.2 kg/m3 (313.15 K). Besides, the speed of sound is, setting by setting: (298.15 K) 1304 ± 6 m/s; (308.15 K) 1285 ± 6 m/s.

The values above are taken from the NIST ThermoML archive (doi:10.1021/je034022n).
